This note sets out measurements from patent US10206394B2, “Herbicidal compounds” (Syngenta Participations AG, priority 2014, dated 2019).

Read-outs that look alike come from different tables or passages of the source.

Holding throughout (format): in vivo
The test system of one data set is Avena fatua (AVEFA). Nature of the data set: Glasshouse assay for herbicidal activity (pre- and post-emergence), percentage phytotoxicity. Conditions: Avena fatua, Rate 250 g/ha, 100%=total damage, 0%=no damage. An outline of the steps: (§1)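 Herbicide was applied to potted plants sown in standard soil, one day after sowing for PRE and after about 12 days for POST. Visual percentage damage ratings followed at 15 DAA (POST) and 20 DAA (PRE).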

In data set [1] the test system is Echinochloa crus-galli (ECHCG). The data set is described as above. Conditions: Echinochloa crus-galli, Rate 250 g/ha, 100%=total damage, 0%=no damage. An outline of the steps: as §1
The subject of data set [2] is Alopecurus myosuroides (ALOMY). The data set is described as above. Conditions: Alopecurus myosuroides, Rate 250 g/ha, 100%=total damage, 0%=no damage. An outline of the steps:
as §1

The next data set deals with Lolium perenne (LOLPE). Described as above. The conditions noted are these: Lolium perenne, Rate 250 g/ha, 100%=total damage, 0%=no damage. A digest of the protocol:
as §1

Data set [3] has as its system Winter Wheat variety 'Hereward'. Nature of the data set: Glasshouse assay for crop safety, post-emergence, +/- safener cloquintocet-mexyl (CQC), percentage phytotoxicity. The conditions noted are these: 250 g/ha, evaluated after 13 days, 100=total damage, 0=no damage; for Post-emergence Crop Selectivity, percentage phytotoxicity, Wheat +CQC: with safener cloquintocet-mexyl (CQC) seed treatment 0.5 g/kg seed; for Post-emergence Crop Selectivity, percentage phytotoxicity, Wheat − CQC: without safener cloquintocet-mexyl (CQC). The source says:
Test—Glasshouse Assay for Crop Safety.
Seeds of the Winter Wheat variety ‘Hereward’ were seed treated with a wettable powder formulation of the cereal herbicide safener, cloquintocet mexyl, at a rate of 0.5 grams per kilogram of dry seed prior to the initiation of glasshouse testing. Three seeds were sown per 1.5 inch plastic pot into a sandy loam soil at a depth of 1 cm, 8 days prior to application of the test compounds and was watered and grown under controlled conditions in a glasshouse (at 24/16° C., day/night; 14 hours light; 65% humidity). The plants were sprayed Post-emergence with an aqueous spray solution derived from the formulation of the technical active ingredient in acetone/water (50:50) solution containing 0.5% Tween 20 (polyoxyethelyene sorbitan monolaurate, CAS RN 9005-64-5).
The test plants were then grown in a glasshouse under controlled conditions (at 24/16° C., day/night; 14 hours light; 65% humidity) and watered twice daily. After 13 days for pre and post-emergence, the test was evaluated (100=total damage to plant; 0=no damage to plant).

[4] abbreviates: post-emergence, 360 h, post-emergence, assessed visually 15 DAA, read-out: Post-emergence herbicidal activity (percentage phytotoxicity) AVEFA POST.
Where [5] appears, read: pre-emergence, 480 h, pre-emergence, assessed visually 20 DAA, read-out: Pre-emergence herbicidal activity (percentage phytotoxicity) AVEFA PRE.
The mark [6] stands for this setting: post-emergence, 360 h, post-emergence, assessed visually 15 DAA, read-out: Post-emergence herbicidal activity (percentage phytotoxicity) ECHCG POST.
[7] abbreviates: pre-emergence, 480 h, pre-emergence, assessed visually 20 DAA, read-out: Pre-emergence herbicidal activity (percentage phytotoxicity) ECHCG PRE.
The mark [8] stands for this setting: post-emergence, 360 h, post-emergence, assessed visually 15 DAA, read-out: Post-emergence herbicidal activity (percentage phytotoxicity) ALOMY POST.
Setting [9] is: pre-emergence, 480 h, pre-emergence, assessed visually 20 DAA, read-out: Pre-emergence herbicidal activity (percentage phytotoxicity) ALOMY PRE.
[10] abbreviates: post-emergence, 360 h, post-emergence, assessed visually 15 DAA, read-out: Post-emergence herbicidal activity (percentage phytotoxicity) LOLPE POST.
[11] abbreviates: pre-emergence, 480 h, pre-emergence, assessed visually 20 DAA, read-out: Pre-emergence herbicidal activity (percentage phytotoxicity) LOLPE PRE.

As for `Cc1cc(-c2ncc(F)cc2F)cc(C)c1C1C(=O)CC(CC(=O)NC(C)(C)C)C1=O` (stereo not shown) [Compound A85], the pest or weed control at 250 g/ha is 100% with Avena fatua (AVEFA) (setting [4]); 80% with Avena fatua (AVEFA) (setting [5]); 100% in data set [1] (setting [6]); 90% in data set [1] (setting [7]); 100% in data set [2] (setting [8]); 100% in data set [2] (setting [9]). Also, the pest or weed control at 250 g/ha in the data set on Lolium perenne (LOLPE) (setting [10]) is 90%; in the data set with Lolium perenne (LOLPE) (setting [11]) it was 100%. The “Post-emergence Crop Selectivity, percentage phytotoxicity, Wheat +CQC” value in data set [3] stood at 10%. Also, the “Post-emergence Crop Selectivity, percentage phytotoxicity, Wheat − CQC” value in data set [3] is listed as 80%.

For the compound `C#Cc1cc(C)c(C2C(=O)CC(CC(=O)NC(C)(C)C)C2=O)c(C)c1` (stereo not shown) [Compound A43], the pest or weed control at 250 g/ha worked out at 90% in the data set with Avena fatua (AVEFA) (setting [4]); 100% in the data set with Avena fatua (AVEFA) (setting [5]); 90% in data set [1] (setting [6]); 100% in data set [1] (setting [7]); 100% in data set [2] (setting [8]); 100% in data set [2] (setting [9]). Moreover, the pest or weed control at 250 g/ha was determined as 90% in the data set with Lolium perenne (LOLPE) (setting [10]) and 100% in the data set with Lolium perenne (LOLPE) (setting [11]). Also, the “Post-emergence Crop Selectivity, percentage phytotoxicity, Wheat +CQC” value in data set [3] was 50%. In addition, the “Post-emergence Crop Selectivity, percentage phytotoxicity, Wheat − CQC” value in data set [3] turned out to be 90%.

Turning to `Cc1cc(-c2cncnc2)cc(C)c1C1C(=O)CC(CC(=O)NCc2cccc(Cl)c2)C1=O` (stereo not shown) [Compound A142], the pest or weed control at 250 g/ha was 0% in the data set on Avena fatua (AVEFA) (setting [5]); 60% in data set [1] (setting [6]); 30% in data set [1] (setting [7]); 0% in data set [2] (setting [9]); 20% in the data set with Lolium perenne (LOLPE) (setting [10]); 20% in the data set with Lolium perenne (LOLPE) (setting [11]). Moreover, the “Post-emergence Crop Selectivity, percentage phytotoxicity, Wheat +CQC” value in data set [3] is listed as 50%. Moreover, the “Post-emergence Crop Selectivity, percentage phytotoxicity, Wheat − CQC” value in data set [3] was determined as 70%.

With `Cc1cc(-n2cc(Cl)cn2)cc(C)c1C1C(=O)CC(CC(=O)NC(C)(C)C)C1=O` (stereo not shown) [Compound A67, N-tert-butyl-2-[3-[4-(4-chloropyrazol-1-yl)-2,6-dimethyl-phenyl]-2,4-dioxo-cyclopentyl]acetamide], the pest or weed control at 250 g/ha in the data set with Avena fatua (AVEFA) (setting [4]) was found to be 80%; with Avena fatua (AVEFA) (setting [5]), 90%; in data set [1] (setting [6]), 100%; in data set [1] (setting [7]), 90%; in data set [2] (setting [8]), 80%; in data set [2] (setting [9]) it was 100%. Also, the pest or weed control at 250 g/ha in the data set with Lolium perenne (LOLPE) (setting [10]) stood at 70%; in the data set with Lolium perenne (LOLPE) (setting [11]), 90%. For the same compound, in data set [3], the “Post-emergence Crop Selectivity, percentage phytotoxicity, Wheat +CQC” value is recorded as 0%. In addition, the “Post-emergence Crop Selectivity, percentage phytotoxicity, Wheat − CQC” value in data set [3] is given as 70%.

As for `CCC(C)(C)NC(=O)CC1CC(=O)C(c2c(C)cc(C)cc2C)C1=O` (stereo not shown) [Compound A27], the pest or weed control at 250 g/ha worked out at 80% in the data set with Avena fatua (AVEFA) (setting [4]); 70% with Avena fatua (AVEFA) (setting [5]); 80% in data set [1] (setting [6]); 80% in data set [1] (setting [7]); 80% in data set [2] (setting [8]); 70% in data set [2] (setting [9]). For the same compound, the pest or weed control at 250 g/ha in the data set with Lolium perenne (LOLPE) (setting [10]) and with Lolium perenne (LOLPE) (setting [11]) was 80% throughout. The “Post-emergence Crop Selectivity, percentage phytotoxicity, Wheat +CQC” value in data set [3] came out at 20%. For the same compound, the “Post-emergence Crop Selectivity, percentage phytotoxicity, Wheat − CQC” value in data set [3] came to 30%.

For the compound `CCNC(=O)CC1CC(=O)C(c2c(C)cc(C)cc2C)C1=O` (stereo not shown) [Compound A20], the pest or weed control at 250 g/ha amounted to 80% in the data set with Avena fatua (AVEFA) (setting [4]); 70% in the data set on Avena fatua (AVEFA) (setting [5]); 100% in data set [1] (setting [6]); 100% in data set [1] (setting [7]); 80% in data set [2] (setting [8]); 70% in data set [2] (setting [9]). Also, the pest or weed control at 250 g/ha with Lolium perenne (LOLPE) (setting [10]) and in the data set on Lolium perenne (LOLPE) (setting [11]) was 100% each time. The “Post-emergence Crop Selectivity, percentage phytotoxicity, Wheat +CQC” value in data set [3] turned out to be 20%. Also, in data set [3], the “Post-emergence Crop Selectivity, percentage phytotoxicity, Wheat − CQC” value is given as 40%.
